Test results: BindingDB's records for patent US20240150293 (Les Laboratoires Servier, 2024)

These molecules were tested against T1, Induced myeloid leukemia cell differentiation protein Mcl-1 [C286S] (Homo sapiens, UniProt Q07820, C286S) (assay: Method B: Inhibition of Mcl-1 by the Fluorescence Quenching Assay).
T1 construct: gene MCL1
Method: The addition of a compound which binds competitively to the same site as the peptide will result in an increase in the fluorescence intensity of the protein due to displacement of the fluorescence quencher. An 11-point serial dilution of each compound was prepared in DMSO, the final buffer conditions were 10 mM 4-(2-hydroxyethyl)-1-piperazineethanesulfonic acid [HEPES], 150 mM NaCl, 0.05% Tween 20, pH 7.4 and 5% DMSO. The final protein concentration in the assay was 1 nM with the peptide present at 10, 20 or 400 nM. The experiments were incubated for 2 hours at room temperature before fluorescence intensity was measured on a Biotek SynergyNeo plate reader (Excitation 620 nm, emission 680 nm). The dose response curves were plotted with XL-Fit software using a 4-Parameter Logistic Model (Sigmoidal DoseResponse Model) and the inhibitory concentrations that gave a 50% increase in fluorescence intensity was determined (IC50). The Ki values were determined from the IC50 values according to Cer et al, Nucleic Acids Res, 2009, 37 (WebServer issue): W441-W445. Inhibition constants (Ki) are determined from complete binding inhibition curves (cKi) or from estimated from incomplete binding inhibition curves (eKi) in most cases due to low activity.

T1 sequence (Q07820 whole entry C286S, looked up): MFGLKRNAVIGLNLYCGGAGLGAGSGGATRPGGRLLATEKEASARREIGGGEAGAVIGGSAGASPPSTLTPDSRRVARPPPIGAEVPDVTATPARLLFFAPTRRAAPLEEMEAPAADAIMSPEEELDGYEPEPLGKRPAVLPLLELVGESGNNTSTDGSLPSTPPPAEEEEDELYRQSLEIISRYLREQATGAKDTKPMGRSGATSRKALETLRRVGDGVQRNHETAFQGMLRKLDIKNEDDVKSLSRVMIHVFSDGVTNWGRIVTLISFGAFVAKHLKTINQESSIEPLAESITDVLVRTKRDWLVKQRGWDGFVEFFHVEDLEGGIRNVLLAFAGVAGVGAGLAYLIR

Row | Ki [nM] | SMILES
1 | 4.48 | CCC1CC(O)c2nccc(OC[C@H](C)C[C@H]3Cc4ccccc4[C@]34CC[C@@](Nc3cccc(Cl)c3)(C(=O)O)CC4)c21 (stereo partly drawn) [US20240150293, Example 624]
2 | 37.7 | C[C@@H](COc1cccc2ncsc12)C[C@H]1Cc2ccccc2[C@]12CC[C@@](Nc1cccc(Cl)c1)(C(=O)O)CC2 [US20240150293, Example 625]
3 | 3.91 | C[C@@H](COc1ccnc2[nH]ccc12)C[C@H]1Cc2ccccc2[C@]12CC[C@@](Nc1cccc(Cl)c1)(C(=O)O)CC2 [US20240150293, Example 626]
